Laboratory results reported in patent publication US12023335B2, “Method for treating pancreatic cancer” (PTC THERAPEUTICS, INC., priority 2018, dated 2024).

Assays:
Assay type in all cases: cell-based, human
[1] = test system: Aspc1 cells; test: Aspc1 cell viability over time (AlamarBlue proliferation curves); conditions: 0.1 μM or 1.0 μM, relative to vehicle (FIG. 1a)
Experimental: For proliferation curves, cells were plated in 96-well plates (Corning, 3603) and allowed to seed overnight. Replicate plates were plated for each time point since viability measurements were an endpoint procedure. The following day, cells were treated with Compound at indicated concentrations and treated with DMSO at the highest used concentration (always below 0.003%). Cells were treated for 96 hours, and viability was determined every 24 hours using AlamarBlue reagent (BioRad, BUF012B). Briefly, 10 μL of AlamarBlue was added to each well (100 μL), mixed briefly, and allowed to incubate at 37° C. and 5% CO2 for 4 hours. Following incubation, fluorescence was measured on a Promega multimode microplate reader. For analysis, background levels were subtracted from raw results, which were then normalized to be represented as a fold change compared to DMSO-treated cells on Day 0. All assays were carried out in at least triplicate with 4-8 technical replicates per treatment group, per experiment. (FIG. 1a and FIG. 10b)

[2] = test system: Aspc1 cells; test: Cell cycle analysis by flow cytometry (DNA content, PH3) in Aspc1 cells
Experimental: Cells were seeded into 12-well or 6-well plates such that 16 hours later they would be approximately 30-50% confluent. Cells were then treated for 24 hours with either DMSO (<0.003%), Compound 1 (100 nM or 1 μM), or 100 nM nocodazole (Sigma, M1404). Following treatment, cells were harvested and fixed in ice-cold 70% ethanol for a minimum of one hour. Following fixation, cells were re-suspended in PBS+2% FBS+3 μM DAPI (BioLegend, 422801) or 0.25 μg 7-AAD (BD Pharmingen, 559925), and analyzed on a MACSQuant® Analyzer 10 (Miltenyi Biotec) or BD LSR II™. For cell cycle analysis time course experiments, cells were prepared as described above, except treated for 24, 48, or 72 hours. Data was analyzed using FlowJo software. Percent populations in G2/M were identified using the univariate cell cycle platform offered by FlowJo software. Percent populations >4N were determined by gating above the 4N population of DMSO-treated cells. (FIG. 1b, FIG. 1c, FIG. 2a, FIG. 2b, FIG. 10e, and FIG. 10g)
For phospho-Histone H3 (PH3) staining, cells were fixed and permeabilized according to manufacturer's instructions using the eBioscience Foxp3/Transcription Factor Staining Buffer Set (ThermoFisher, 00-5523-00). Cells were blocked with Fc Block (BD Biosciences, 564220) and stained using a PH3 (Ser10) antibody (BioLegend, 650805) with 5 uL per million cells (45 min, room temp, dark). Samples were analyzed on a BD Fortessa™ and analyzed by FlowJo software. (FIG. 1d and FIG. 3a)

[3] = test system: Aspc1 cells; test: Active caspase 3 apoptosis flow cytometry in Aspc1 cells; conditions: 24, 48, 72 hours, relative to vehicle (FIGS. 3a, 3b)
Experimental: For active Caspase-3 (ActCasp3) staining, the Caspase 3 (active) FITC Staining Kit (Abcam, ab65613) was used according to manufacturer's instructions. Cells were seeded in 12-well plates such that ˜16 hours later they would be approximately 50-60% confluent. […] Samples were analyzed on a BD LSR II™ and analyzed by FlowJo software. (FIG. 3a and FIG. 3b)

[4] = test system: BMI-1; test: Western blot of BMI-1 levels in PDA cell lines; conditions: Aspc1, MiaPaCa-2, Panc1 cells; 0.1 μM or 1.0 μM, 24 hours (FIG. 10a)
Experimental: (§1) Western blotting was carried out on lysates isolated from treated cells. Cells were lysed using RIPA buffer (50 mM Tris, pH 7.4, 150 mM NaCl, 1% Nonidet P-40, 0.1% SDS, 0.5% deoxycholate) supplemented with cOmplete™ EDTA-free Protease Inhibitor Cocktail (Sigma, 11836170001) and Halt™ Phosphatase Inhibitor Cocktail (ThermoFisher, 78420). Lysates were quantified using the Pierce BCA Protein Assay Kit (ThermoFisher, 23227), diluted in SDS sample buffer, resolved by SDS-PAGE (15-30 μg/sample), and transferred onto PVDF membranes. Membranes were blocked with 5% w/v nonfat dry milk in TBS-T (0.1% Tween20) and primary antibodies were incubated overnight at 4° C., diluted in 5% BSA in TBS-T at the indicated concentrations. HRP-conjugated secondary antibodies were incubated in blocking buffer for 1 hour at room temperature before detection using Super Digital-ECL™ substrate solution (Kindle Biosciences, R1002). (FIG. 5b, FIG. 10a and FIG. 11b)
Western Blot Antibodies: • Bmi1: Cell Signaling, #5856, 1:1000 • Vinculin: Cell Signaling, #4650S, 1:1000 • Beta-tubulin: Cell Signaling, #2146S, 1:1000 P-Glycoprotein Substrate Activity Experiment

[5] = test system: tubulin; test: Analysis of free tubulin content in Aspc1 cells (fractionation, western blot); conditions: 3.0 μM, 2 hours, relative to vehicle, COL and TAX (FIGS. 11a, 11b)
Experimental: as §1
Free heterodimer tubulin was separated from tubulin incorporated into microtubules according to manufacturer's recommendations using the Microtubule/Tubulin In Vivo Assay Biochem Kit (Cytoskeleton, #BK038). Cells were seeded in 12-well plates such that ˜16 hours later they would be approximately 50-60% confluent. […]

Cc1nc2ccc(F)cc2n1-c1nc(N)c(F)c(Nc2ccc(C(F)(F)F)cc2)n1 [Compound 1, 5-fluoro-2-(6-fluoro-2-methyl-1H-benzo[d]imidazol-1-yl)-N4-[4-(trifluoromethyl)phenyl]pyrimidine-4,6-diamine]
relative Aspc1 cell viability over time [1]: dose and time-dependent decrease in human PDA cell viability | cell cycle arrest (percent cells in G0/G1, S, G2/M; percent in mitosis PH3+/4N) ([2]; 0.1 μM or 1.0 μM, 24 hours (FIGS. 1b-1d)): dose and time-dependent effect in cell cycle arrest | percent of Aspc1 cells with DNA content >4N (polyploidy) ([2]; 0.1 μM or 1.0 μM, 24, 48, 72 hours (FIGS. 2a, 2b)): dose and time-dependent increase in the amount of human PDA cells affected by polyploidy | mitotic arrest and apoptosis ([2]; multiple PDA cell lines (summary statement)): induce mitotic arrest and apoptosis in multiple PDA cell lines | total apoptotic Aspc1 cells (active caspase 3+) [3]: time-dependent increase in cell biomarkers that indicate a corresponding increase in cell apoptosis | BMI-1 levels relative to vinculin [4]: consistent reduction in BMI-1 protein expression in various cell types | free tubulin vs microtubules in cell lysate fractions [5]: significant fold-change increase in prevention of tubulin formation
